Assay: High fat diet induced obesity (DIO) mouse model
Assay type: in vivo, C57CL/6J mice
Design: Epididymal Fat weight / Retroperitoneal Fat weight / Total Fat (sum of the three fat deposits) / Retroperitoneal Fat / Total Fat / Epididymal Fat, absolute weight / Retroperitoneal Fat, absolute weight: unit not given here
Conditions: for Weight (total body weight) / Total Weight: in g (unit assumed)
Protocol: C57CL/6J mice aged 4-6 weeks (Korea Research Institute of Bioscience & Biotechnology, Ohchang, Korea) were housed in Polycarbonate cages (five mice per cage) in a room with a 12 hr:12 hr light-dark cycle and an ambient temperature of 24° C. All the mice were fed a commercial chow diet for 1 week after arrival in the animal facility. Mice were then divided into normal and obesity groups and fed with normal diet (ND) and high fat diets (HFD) respectively. The HFD group was divided into multiple treatment groups: a high fat diet vehicle group (HFD), an orlistat (purchased as OTC drug Alli®) positive control treatment group (ORI, 40 mg/kg of animal weight, 2 times/day) and optionally a sibutramine positive control treatment group (10 mg/kg, 1 time/day). The HFD contained 340 g of fat/kg of HFD (310 g lard plus 30 g soybean oil; Harlan Laboratories, USA). The HFD was formulated to provide 60% of the total energy generated by the diet from fat by replacing carbohydrate energy with lard and soybean oil, whereas the normal diet (ND) group was fed a diet providing only 18% of the total diet energy from fat(Harlan Laboratories, USA).
Body weight was measured once each week and feed intake was measured twice per week. At the end of the experimental period, following a 12 hr. fasting period, the animals were anesthetized with ether, and blood was drawn from the abdominal vein. Liver and kidney and adipose tissues (epididymal, retroperitoneal, perirenal adipose tissues) were removed from each animal, rinsed with physiological saline, and weighed. Serum concentrations of glucose, total cholesterol, triglycerides, and LDL-cholesterol were determined using automatic analyzer (INTEGRA 400, Roche, Germany). Statistical significance of test results was measured using the Student's t-test.

[1] = DIO mice blood biochemistry, SIB 10 mg/kg, ORI 40 mg/kg, Mutamba extract 32 (G1) 1000 mg/kg, mean
[2] = DIO mice blood biochemistry, SIB 10 mg/kg, ORI 40 mg/kg, Mutamba extract 33-2 G1 1000 mg/kg, mean
[3] = DIO mice liver pathology score, SIB 10 mg/kg, ORI 40 mg/kg, Mutamba extract 32 (G1) 1000 mg/kg, mean
[4] = DIO mice, ORI 40 mg/kg, seven week study, mean
[5] = DIO mice, biochemistry parameters, G3, G4 1000 mg/kg oral two times per day
[6] = DIO mice, blood at end of study, ORI 40 mg/kg, mean
[7] = DIO mice, blood at end of study, ORI 40 mg/kg, G1 300 mg/kg (Morus:Magnolia 2:1)
[8] = DIO mice, blood at end of study, ORI 40 mg/kg, G1 1200 mg/kg (Morus:Yerba Mate 1:5)
[9] = DIO mice, liver pathology, ORI 40 mg/kg, mean
[10] = DIO mice, oral, seven weeks, combination (2:5) 700 mg/kg, ORI 40 mg/kg, group mean
[11] = DIO mice, oral, week 1, ORI 40 mg/kg, G1 700 mg/kg (Morus:Rosemary 2:5)
[12] = DIO mice, oral, week 1, ORI 40 mg/kg, G1 1200 mg/kg (Morus:Yerba Mate 1:5)
[13] = DIO mice, oral, week 2, ORI 40 mg/kg, G1 700 mg/kg (Morus:Rosemary 2:5)
[14] = DIO mice, oral, week 2, ORI 40 mg/kg, G1 1200 mg/kg (Morus:Yerba Mate 1:5)
[15] = DIO mice, oral, week 3, ORI 40 mg/kg, G1 700 mg/kg (Morus:Rosemary 2:5)
[16] = DIO mice, oral, week 3, ORI 40 mg/kg, G1 1200 mg/kg (Morus:Yerba Mate 1:5)
[17] = DIO mice, oral, week 4, ORI 40 mg/kg, G1 700 mg/kg (Morus:Rosemary 2:5)
[18] = DIO mice, oral, week 4, ORI 40 mg/kg, G1 1200 mg/kg (Morus:Yerba Mate 1:5)
[19] = DIO mice, oral, week 5, ORI 40 mg/kg, G1 700 mg/kg (Morus:Rosemary 2:5)
[20] = DIO mice, oral, week 5, ORI 40 mg/kg, G1 1200 mg/kg (Morus:Yerba Mate 1:5)
[21] = DIO mice, oral, week 6, ORI 40 mg/kg, G1 700 mg/kg (Morus:Rosemary 2:5)
[22] = DIO mice, oral, week 6, ORI 40 mg/kg, G1 1200 mg/kg (Morus:Yerba Mate 1:5)
[23] = DIO mice, oral, week 7, ORI 40 mg/kg, G1 700 mg/kg (Morus:Rosemary 2:5)
[24] = DIO mice, oral, week 7, ORI 40 mg/kg, G1 1200 mg/kg (Morus:Yerba Mate 1:5)
[25] = DIO mice, seven weeks, ORI 40 mg/kg, G1 300 mg/kg (Morus:Magnolia 2:1)
[26] = DIO mice, seven weeks, ORI 40 mg/kg, G1 1200 mg/kg (Morus:Yerba Mate 1:5)
[27] = DIO mice, week 1, G1-G4 1000 mg/kg oral gavage two times per day
[28] = DIO mice, week 2, G1-G4 1000 mg/kg oral gavage two times per day
[29] = DIO mice, week 3, G1-G4 1000 mg/kg oral gavage two times per day
[30] = DIO mice, week 4, G1-G4 1000 mg/kg oral gavage two times per day
[31] = DIO mice, week 5, G1-G4 1000 mg/kg oral gavage two times per day
[32] = DIO mice, week 6, G1-G4 1000 mg/kg oral gavage two times per day
[33] = DIO mice, week 7, G1-G4 1000 mg/kg oral gavage two times per day
[34] = DIO mice, G1-G4 1000 mg/kg oral gavage two times per day

CCCCCCCCCCC[C@@H](C[C@@H]1OC(=O)[C@H]1CCCCCC)OC(=O)[C@H](CC(C)C)NC=O [ORI, orlistat]
ALT [1]: 40.42 U/L
AST [1]: 67.96 U/L
HDL-C [1]: 78.52 mg/dL
LDL-C [1]: 6.78 mg/dL
T-chol [1]: 184.40 mg/dL
TG [1]: 143.60 mg/dL
LDL-C [2]: 7.42 mg/dL
T-chol [2]: 182.40 mg/dL
TG [2]: 41.20 mg/dL
Hepatocellular ballooning (0-2) [3]: 0.60
Lobular Inflammation (0-3) [3]: 1.60
Steatosis (0-3) [3]: 1.20
NASH (sum) (DIO mice liver pathology, sum of scores, SIB 10 mg/kg, ORI 40 mg/kg, Mutamba extract 32 (G1) 1000 mg/kg, mean): 3.40
Food Intake [4]: 3.195 g/day
Weight Gain [4]: 0.000 g/day
Food Efficiency Ratio (FER) (DIO mice, ORI 40 mg/kg, seven week study, body weight gain/food intake): 0.000
Weight Gain (DIO mice, ORI 40 mg/kg, week 1, mean): −5.43
Weight Gain (DIO mice, ORI 40 mg/kg, week 2, mean): −6.69
Weight Gain (DIO mice, ORI 40 mg/kg, week 3, mean): −5.27
Weight Gain (DIO mice, ORI 40 mg/kg, week 4, mean): −3.47
Weight Gain (DIO mice, ORI 40 mg/kg, week 5, mean): −2.34
Weight Gain (DIO mice, ORI 40 mg/kg, week 6, mean): −1.08
Weight Gain (DIO mice, ORI 40 mg/kg, week 7, mean): 0.02
ALP [5]: 186.51 U/L
ALT [5]: 35.12 U/L
AST [5]: 62.03 U/L
Glu [5]: 267.22 mg/dL
HDL-C [5]: 74.22 mg/dL
LDL-C [5]: 7.56 mg/dL
T-chol [5]: 175.44 mg/dL
TG [5]: 46.78 mg/dL
TP [5]: 4.89 g/dL
ALT [6]: 21.83 U/L
AST [6]: 65.65 U/L
TG [6]: 27.83 mg/dL
F-Glu (fasting glucose) [7]: 225.50 mg/dL
LDL-C [7]: 3.30 mg/dL
T-Chol (total cholesterol) [7]: 134.00 mg/dL
Triglyceride [7]: 62.50 mg/dL
F-Glu (fasting glucose) [8]: 225.50 mg/dL
LDL-C [8]: 3.30 mg/dL
T-Chol (total cholesterol) [8]: 134.00 mg/dL
Triglyceride [8]: 62.50 mg/dL
Hepatocellular ballooning (0-2) [9]: 0.67
Lobular Inflammation (0-3) [9]: 1.33
NASH (sum) [9]: 2.67
Steatosis (0-3) [9]: 0.67
Perirenal Fat (DIO mice, oral, seven weeks, combination 700 mg/kg, ORI 40 mg/kg, group mean): 0.43
Food Efficiency Ratio (FER) (DIO mice, oral, seven weeks, combination (2:5) 700 mg/kg, ORI 40 mg/kg, FER = body weight gain/food intake): 0.005
Body Weight Gain [10]: 0.012 g/day
Food Intake [10]: 2.711 g/day
Weight (total body weight) (DIO mice, oral, week 0, ORI 40 mg/kg, G1 700 mg/kg (Morus:Rosemary 2:5)): 42.39
Total Weight (DIO mice, oral, week 0, ORI 40 mg/kg, G1 1200 mg/kg (Morus:Yerba Mate 1:5)): 38.40
Body Weight Gain (DIO mice, oral, week 1, ORI 40 mg/kg, G1 300 mg/kg (Morus:Magnolia 2:1)): −3.20
Body Weight Gain [11]: −3.56
Weight (total body weight) [11]: 38.83
Weight Gain [12]: −3.20
Total Weight [12]: 35.20
Body Weight Gain (DIO mice, oral, week 2, ORI 40 mg/kg, G1 300 mg/kg (Morus:Magnolia 2:1)): −4.88
Body Weight Gain [13]: −5.75
Weight (total body weight) [13]: 36.64
Weight Gain [14]: −4.88
Total Weight [14]: 33.58
Body Weight Gain (DIO mice, oral, week 3, ORI 40 mg/kg, G1 300 mg/kg (Morus:Magnolia 2:1)): −3.34
Body Weight Gain [15]: −5.91
Weight (total body weight) [15]: 36.48
Weight Gain [16]: −3.34
Total Weight [16]: 35.12
Body Weight Gain (DIO mice, oral, week 4, ORI 40 mg/kg, G1 300 mg/kg (Morus:Magnolia 2:1)): −2.61
Body Weight Gain [17]: −3.82
Weight (total body weight) [17]: 38.57
Weight Gain [18]: −2.61
Total Weight [18]: 35.84
Body Weight Gain (DIO mice, oral, week 5, ORI 40 mg/kg, G1 300 mg/kg (Morus:Magnolia 2:1)): −2.04
Body Weight Gain [19]: −2.33
Weight (total body weight) [19]: 40.07
Weight Gain [20]: −2.04
Total Weight [20]: 36.41
Body Weight Gain (DIO mice, oral, week 6, ORI 40 mg/kg, G1 300 mg/kg (Morus:Magnolia 2:1)): −1.65
Body Weight Gain [21]: −1.44
Weight (total body weight) [21]: 40.95
Weight Gain [22]: −1.65
Total Weight [22]: 36.80
Body Weight Gain (DIO mice, oral, week 7, ORI 40 mg/kg, G1 300 mg/kg (Morus:Magnolia 2:1)): −0.07
Body Weight Gain [23]: 0.60
Weight (total body weight) [23]: 42.99
Weight Gain [24]: −0.07
Total Weight [24]: 38.38
Absolute Liver Weight [25]: 1.05 g
Body Weight Gain [25]: -0.002 g/day
Epididymal Fat weight [25]: 1.92
Food Intake [25]: 3.961 g/day
Perirenal Fat weight [25]: 0.21
Retroperitoneal Fat weight [25]: 0.55
Total Fat (sum of the three fat deposits) [25]: 2.68
Food Efficiency Ratio (FER) (DIO mice, seven weeks, ORI 40 mg/kg, G1 300 mg/kg, FER = body weight gain (g/day)/food intake (g/day)): 0.000
Food Intake [26]: 3.961 g/day
Retroperitoneal Fat [26]: 0.55
Weight Gain [26]: -0.002 g/day
Food Efficiency Ratio (FER) (DIO mice, seven weeks, ORI 40 mg/kg, G1 1200 mg/kg, FER = body weight gain (g/day)/food intake (g/day)): 0.000
Animal Body Weight, week 0 (DIO mice, week 0 (baseline), G1-G4 1000 mg/kg oral gavage two times per day): 41.44 gram
Animal Body Weight, week 1 [27]: 40.17 gram
Weight Gain, week 1 [27]: −3.97 gram
Animal Body Weight, week 2 [28]: 36.20 gram
Weight Gain, week 2 [28]: −5.37 gram
Animal Body Weight, week 3 [29]: 34.80 gram
Weight Gain, week 3 [29]: −4.08 gram
Animal Body Weight, week 4 [30]: 36.09 gram
Weight Gain, week 4 [30]: −3.11 gram
Animal Body Weight, week 5 [31]: 37.06 gram
Weight Gain, week 5 [31]: −1.26 gram
Animal Body Weight, week 6 [32]: 38.91 gram
Weight Gain, week 6 [32]: 0.05 gram
Animal Body Weight, week 7 [33]: 40.22 gram
Weight Gain, week 7 [33]: 0.72 gram
Weight Gain 2-week (DIO mice, 2-week, Compositions 1, 2 1300 mg/kg/day, 3, 9 1700 mg/kg/day, orlistat 40 mg/kg 2 times/day, sibutramine 10 mg/kg 1 time/day): −5.07
Average Feed Intake 2-week (DIO mice, 2-week, doses as in Example 76): 2.79
Food Efficiency Ratio (FER) 2 weeks (DIO mice, 2 weeks, Mean, Weight Gain (g/day)/Feed Intake (g/day)): −0.223
Weight Gain 7-week (DIO mice, 7-week, Compositions 1, 2 1300 mg/kg/day, 3, 9 1700 mg/kg/day, orlistat 40 mg/kg 2 times/day, sibutramine 10 mg/kg 1 time/day): 0.56
Average Feed Intake 7-week (DIO mice, 7-week, doses as in Example 76): 3.09
Food Efficiency Ratio (FER) 7 weeks (DIO mice, 7 weeks, Mean, Weight Gain (g/day)/Feed Intake (g/day)): 0.005
FER (Food efficiency ratio) (DIO mice, Body weight gain (g/day)/Food intake (g/day), G1 = 800 mg/kg orally twice a day): −0.001
FER (Food efficiency ratio) (DIO mice, Body weight gain (g/day)/Food intake (g/day), G1 = 1,100 mg/kg orally twice a day): −0.001
FER (Food efficiency ratio) (DIO mice, Body weight gain (g/day)/Food intake (g/day), G1 = 1,200 mg/kg orally twice a day): −0.001
FER (Food efficiency ratio) (DIO mice, FER = Weight Gain (g/day)/Food intake (g/day)): 0.006
Food Efficiency Ratio (FER) (DIO mice, FER = body weight gain (g/day)/food intake (g/day), SIB 10 mg/kg, ORI 40 mg/kg, Mutamba extract 32 (G1) 1000 mg/kg, mean): 0.013
Food Efficiency Ratio (FER) (DIO mice, FER = body weight gain (g/day)/food intake (g/day), SIB 10 mg/kg, ORI 40 mg/kg, Mutamba extract 33-2 G1 1000 mg/kg, mean): 0.034
Absolute Organ Weight, PeriRenal Fat [34]: 0.388 g
Absolute Organ Weight, Retroperitoneal Fat [34]: 0.567 g
